Key:
[1] = Stability in human liver microsomes; assay type: in vitro ADME; settings: 37° C., NADPH
Method: Half-Life Human Microsomes:
(§1) Compounds were evaluated for stability in human liver microsomes. A 10 mM stock solution of the compound being evaluated was prepared in DMSO and diluted with water:acetonitrile (1:1) to a concentration of 1 mM. A working concentration of 100 μM was prepared by further dilution with water:acetonitrile (1:1). To make the preincubation mixture, 2.5 μL of the diluted compound was combined with 75 μL of human liver microsomes at 3.33 mg/mL, and 85 μL of 100 mM potassium phosphate buffer, and this mixture was pre-incubated for 10 min at 37° C. To make the 60 minute mixture without cofactor, 32.5 μL of the preincubation mixture was combined with 17.5 μL of 100 mM potassium phosphate buffer and incubated for 60 min at 37° C. To make the 0 min sample with cofactor (NADPH), 16.25 μL of the preincubation mixture was combined with 200 μL of acetonitrile containing internal standard and 8.75 μL of cofactor (NADPH). To make the incubation mixture, 62 μL of cofactor (2.85 mM) was combined with the remaining incubation mixture, and incubated for 60 min at 37° C. To prepare the sample mixture to be evaluated, 25 μL incubation mixture was combined with 200 μL of acetonitrile containing internal standard and vortexed for 5 min at 1200 rpm, then centrifuged for 10 min at 4000 rpm. The supernatant was diluted 2 fold with water and injected on LC-MS/MS. The sample mixture was evaluated by LC-MS/MS using 10 mM ammonium acetate with 0.100 FA as the aqueous mobile phase, and methanol as the organic mobile phase.

[2] = Stability in mouse liver microsomes; assay type: in vitro ADME
Method: as §1
Half-Life Mouse Microsomes:
Compounds were evaluated in mouse liver microsomes following a similar procedure as described above for human liver microsomes. A similar procedure could be used to evaluate compounds in rat liver microsomes.

SREBP = test: Reporter Screening Assay (SRE-luciferase reporter, HepG2); assay type: cell-based; settings: Homo sapiens; SRE-luciferase reporter HepG2 cells, 24 hours, 0.01 uM to 10 uM; read-out: I: Reporter Screening Assay (Ave EC50 (nM))
Method: Reporter Screening Assay: This assay was used to evaluate the effect on transcriptional activity SREBP of selected compounds using an SRE-luciferase reporter construct. On day 1, 10,000 cells were seeded in a 96 well (white) plate as per the plate map in Growth media without antibiotics. Cells were incubated at 37° C. for 8 hours. After 8 hours, cells were washed with DPBS for complete removal of FBS. DPBS was completely removed and Growth media was replaced with phenol free treatment medium (90 μl) with different FBS concentrations. The cells were then incubated at 37° C. for 24 hours with varying doses (0.01 uM to 10 uM) of compounds. Then a Luciferase assay was performed.
Reagents for performing Luciferase assay were stored at −20° C. To a tube of lyophilized assay substrate was added 1 mL Substrate Solvent and mixed well. The Substrate tube after reconstitution was covered with aluminum foil so as to keep it protected from light. The assay buffer was thawed to room temperature. To 20 mL Assay Buffer was added 200 μL of reconstituted 100× Substrate and mixed well. The reconstituted substrate as well as the assay solution (buffer+substrate) was protected from light throughout the procedure by keeping it covered with aluminum foil. Using a multi-channel pipette, 100 μL Assay Solution (buffer+substrate) was added directly to each sample well in Plate 1, which was incubated for 30 min (plate was covered with aluminum foil). After 30 min incubation, the plate was read for total luminescence. Each well was read for 2 seconds in a plate luminometer. (Microplate reader Envision Microplate reader from Perkin Elmer). Precaution was taken to incubate plate exactly for 30 min prior to reading on the plate reader.
SREBPv1 Reporter cell line: HepG2—#32251. Growth Medium: MEM (Corning 10-010), 10% FBS, 1% GlutaMax (Invitrogen Catalog #35050061), […] (Invitrogen Catalog # A1113803) and 1% Penicillin-Streptomycin (Pen-Strep). Treatment Media: Phenol-free MEM (Invitrogen Catalog #51200-038) and 1% GlutaMax (Invitrogen Catalog #35050061). Luciferase Assay: LightSwitch Luciferase Assay Kit (Catalog #32032). LDH assay: Pierce LDH Cytotoxicity Assay Kit (Catalog # SD249616).

Row | SMILES | percent of compound remaining after 60 min in human liver microsomes [1] | percent parent remaining after 60 min in liver microsomes [2] | EC50 (SREBP) [nM]
1 | CC(C)(O)Cc1cc(-c2cc(-c3ccc(NS(C)(=O)=O)cc3Cl)sc2F)ccn1 [Compound I-9085, N-(3-chloro-4-(5-fluoro-4-(2-(2-hydroxy-2-methylpropyl)pyridin-4-yl)thiophen-2-yl)phenyl)methanesulfonamide] | +++ (>60.1 = +++) | +++ (>60.1 = +++) | > 500
2 | CC(C)OC(=O)Nc1ccc(-c2cc(-c3ccnc(CC(C)(C)O)c3)cs2)c(Cl)c1 [Compound I-9051, isopropyl (3-chloro-4-(4-(2-(2-hydroxy-2-methylpropyl)pyridin-4-yl)thiophen-2-yl)phenyl)carbamate] | +++ (>60.1 = +++) | +++ (>60.1 = +++) | > 500
3 | CC(C)(C)c1cc(-c2csc(-c3ccc(NC(=O)OCCN4CCCC4)cc3Cl)c2)ccn1 [Compound I-8762, 2-(pyrrolidin-1-yl)ethyl (4-(4-(2-(tert-butyl)pyridin-4-yl)thiophen-2-yl)-3-chlorophenyl)carbamate] | +++ (>60.1 = +++) | + (0-30 = +) | > 500
4 | CC(C)(CN)c1cc(-c2csc(-c3ccc(NS(C)(=O)=O)cc3Cl)c2)ccn1 [Compound I-9049, N-(4-(4-(2-(1-amino-2-methylpropan-2-yl)pyridin-4-yl)thiophen-2-yl)-3-chlorophenyl)methanesulfonamide] | +++ (>60.1 = +++) | +++ (>60.1 = +++) | > 500
5 | CC(C)S(=O)(=O)c1ccc(-c2cc(-c3ccnc(C(C)(C)C)c3)cs2)cc1 [Compound I-8728, 2-(tert-butyl)-4-(5-(4-(isopropylsulfonyl)phenyl)thiophen-3-yl)pyridine] | ++ (30.1-60 = ++) | +++ (>60.1 = +++) | 250 to 500
6 | CN(c1ccc(-c2cc(-c3ccnc(C4CC4)c3)cs2)c(Cl)c1)S(C)(=O)=O [Compound I-9037, N-(3-chloro-4-(4-(2-cyclopropylpyridin-4-yl)thiophen-2-yl)phenyl)-N-methylmethanesulfonamide] | +++ (>60.1 = +++) | +++ (>60.1 = +++) | < 249
7 | CC(C)(C)c1cc(-c2csc(-c3ccc(S(C)(=O)=O)cc3)c2)ccn1 [Compound I-8723, 2-(tert-butyl)-4-(5-(4-(methylsulfonyl)phenyl)thiophen-3-yl)pyridine] | +++ (>60.1 = +++) | +++ (>60.1 = +++) | > 500
8 | CC(C)(C)c1cc(-c2csc(-c3ccc(NC(=O)NCCN4CCCC4)cc3Cl)c2)ccn1 [Compound I-8761, 1-(4-(4-(2-(tert-butyl)pyridin-4-yl)thiophen-2-yl)-3-chlorophenyl)-3-(2-(pyrrolidin-1-yl)ethyl)urea] | +++ (>60.1 = +++) | +++ (>60.1 = +++) | > 500
9 | CC(C)(CO)c1cc(-c2csc(-c3ccc(NS(=O)(=O)C(F)(F)F)cc3Cl)c2)ccn1 [Compound I-8940, N-(3-chloro-4-(4-(2-(1-hydroxy-2-methylpropan-2-yl)pyridin-4-yl)thiophen-2-yl)phenyl)-1,1,1-trifluoromethanesulfonamide] | + (0-30 = +) | ++ (30.1-60 = ++) | < 249
10 | CC(C)(CO)c1cc(-c2csc(-c3ccc(NC(=O)OC4CC4)cc3Cl)c2)ccn1 [Compound I-8918, Cyclopropyl (3-chloro-4-(4-(2-(1-hydroxy-2-methylpropan-2-yl)pyridin-4-yl)thiophen-2-yl)phenyl)carbamate] | +++ (>60.1 = +++) | ++ (30.1-60 = ++) | 250 to 500
11 | CC(C)(CO)c1cc(-c2csc(-c3ccc(NC(=O)N4CCC(O)CC4)cc3Cl)c2)ccn1 [Compound I-8926, N-(3-chloro-4-(4-(2-(1-hydroxy-2-methylpropan-2-yl)pyridin-4-yl)thiophen-2-yl)phenyl)-4-hydroxypiperidine-1-carboxamide] | ++ (30.1-60 = ++) | +++ (>60.1 = +++) | < 249
12 | CC(C)(C#N)c1cc(-c2csc(-c3ccc(NS(C)(=O)=O)cc3Cl)c2)ccn1 [Compound I-9039, N-(3-chloro-4-(4-(2-(2-cyanopropan-2-yl)pyridin-4-yl)thiophen-2-yl)phenyl)methanesulfonamide] | +++ (>60.1 = +++) | +++ (>60.1 = +++) | > 500

Results, then the compound that gave them:

Row | percent of compound remaining after 60 min in human liver microsomes [1] | percent parent remaining after 60 min in liver microsomes [2] | EC50 (SREBP) [nM] | SMILES
13 | +++ (>60.1 = +++) | +++ (>60.1 = +++) | < 249 | CC(C)OC(=O)Nc1ccc(-c2cc(-c3ccnc4c3OCCO4)cs2)c(Cl)c1 [Compound I-9062, isopropyl (3-chloro-4-(4-(2,3-dihydro-[1,4]dioxino[2,3-b]pyridin-8-yl)thiophen-2-yl)phenyl)carbamate]
14 | ++ (30.1-60 = ++) | ++ (30.1-60 = ++) | < 249 | CC(C)NS(=O)(=O)Nc1ccc(-c2cc(-c3ccnc(C(C)(C)CO)c3)cs2)c(Cl)c1 [Compound I-8941]
15 | +++ (>60.1 = +++) | +++ (>60.1 = +++) | < 249 | CN(C(=O)OC1CC1)c1ccc(-c2cc(-c3ccnc(C4CC4)c3)cs2)c(Cl)c1 [Compound I-9038, cyclopropyl (3-chloro-4-(4-(2-cyclopropylpyridin-4-yl)thiophen-2-yl)phenyl)(methyl)carbamate]
16 | +++ (>60.1 = +++) | +++ (>60.1 = +++) | < 249 | CC(C)OC(=O)Nc1ccc(-c2cc(-c3ccnc(C4(CO)CC4)c3)cs2)c(Cl)c1 [Compound I-8980, Isopropyl (3-chloro-4-(4-(2-(1-(hydroxymethyl)cyclopropyl)pyridin-4-yl)thiophen-2-yl)phenyl)carbamate]
17 | +++ (>60.1 = +++) | +++ (>60.1 = +++) | < 249 | CC(C)OC(=O)Nc1ccc(-c2cc(-c3ccnc(OC4CC4)c3)cs2)c(Cl)c1 [Compound I-9060, isopropyl (3-chloro-4-(4-(2-cyclopropoxypyridin-4-yl)thiophen-2-yl)phenyl)carbamate]
18 | ++ (30.1-60 = ++) | +++ (>60.1 = +++) | < 249 | CN(c1ccc(-c2cc(-c3ccnc(C4(CO)CC4)c3)cs2)c(Cl)c1)S(C)(=O)=O [Compound I-9056, N-(3-chloro-4-(4-(2-(1-(hydroxymethyl)cyclopropyl)pyridin-4-yl)thiophen-2-yl)phenyl)-N-methylmethanesulfonamide]
